Read-outs that look alike come from different tables or passages of the source.

Experiment in all cases: In vitro IC50 profile for CDKs family kinase (33PanQinase Activity Assay, ProQinase)
Assay type in all cases: biochemical

Test [1] addresses T1, 28 CDKs family protein kinases (Homo sapiens, UniProt P50613).
T1 construct: purchased ProQinase GmbH; host or cells: Sf9 insect cells or E. coli
The following applies: CDK7/CycH/MAT1; read-out: CDK7 selectivity profile in CDKs family, IC50. How it is done:
(§1) The IC50 profile of compound 11 was determined using 28 CDKs family protein kinases through ProQinase GmbH (Freiburg, Germany). All the protocol and materials had been provided by ProQinase GmbH. Briefly, in the process, 90 μl H2O were added to each well of a compound dilution plate. To minimize potential precipitation, the H2O was added to the plate only a few minutes before the transfer of the compound solutions into the assay plates. The plate was shaken thoroughly, resulting in a “compound dilution plate/10% DMSO”. The compound dilution plate(s) were discarded at the end of the working day. For the assays (see below), 5 μl solution from each well of the compound dilution plate were transferred into the assay plates. The final volume of the assay was 50 μl. All compounds were tested at 10 final assay concentrations in the range from 1×10^−05 M to 3×10^−10 M. The final DMSO concentration in the reaction cocktails was 1% in all cases. All protein kinases provided by ProQinase were expressed in Sf9 insect cells or in E. coli as recombinant GST-fusion proteins or His-tagged proteins, either as full-length or enzymatically active fragments. All kinases were produced from human cDNAs and purified by either GSH affinity chromatography or immobilized metal affinity chromatography. The purity of the protein kinases was examined by SDS-PAGE/Coomassie staining, the identity was checked by mass spectroscopy. Kinases from external vendors, Carna Biosciences Inc.; Invitrogen Corp.; and Millipore Corp., were expressed, purified and quality-controlled by virtue of the vendors readings. A radiometric protein kinase assay (33PanQinase® Activity Assay) was used for measuring the kinase activity of the 28 protein kinases. All kinase assays were performed in 96-well FlashPlates™ from PerkinElmer (Boston, MA, USA) in a 50 μl reaction volume. The reaction cocktails were incubated at 30° C. for 60 minutes. The reaction was stopped with 50 μl of 2% (v/v) H3PO4, plates were aspirated and washed two times with 200 μl 0.9% (w/v) NaCl. Incorporation of ^33Pi was determined with a microplate scintillation counter (Microbeta, Wallac). All assays were performed with a BeckmanCoulter/SAGIAN™ Core System. As part of the data evaluation the low control value from a particular plate was subtracted from the high control value as well as from all 80 “compound values” of the corresponding plate. The residual activity (in %) for each well of a particular plate was calculated by using the following formula: Res. Activity (%)=100×[(cpm of compound−low control)/(high control−low control)].

The target in test [2] is T2, 28 CDKs family protein kinases (Homo sapiens, UniProt Q00526).
T2 construct: purchased ProQinase GmbH; host or cells: Sf9 insect cells or E. coli
The following applies: read-out: CDK7 selectivity profile in CDKs family, IC50. As to the method:
as §1

The target of test [3] is T3, 28 CDKs family protein kinases (Homo sapiens, UniProt Q00537).
T3 construct: purchased ProQinase GmbH; host or cells: Sf9 insect cells or E. coli
The following applies: CDK17/p35NCK; read-out: CDK7 selectivity profile in CDKs family, IC50. As to the method: as §1

The target in test [4] is T4, 28 CDKs family protein kinases (Homo sapiens, UniProt Q14004).
T4 construct: purchased ProQinase GmbH; host or cells: Sf9 insect cells or E. coli
How it is done: as §1

Test [5] concerns the target T5, 28 CDKs family protein kinases (Homo sapiens, UniProt Q8IZL9).
T5 construct: purchased ProQinase GmbH; host or cells: Sf9 insect cells or E. coli
The following applies: read-out: CDK7 selectivity profile in CDKs family, IC50. How it is done:
as §1

For test [6], the target named is T6, 28 CDKs family protein kinases (Homo sapiens, UniProt Q9BWU1).
T6 construct: purchased ProQinase GmbH; host or cells: Sf9 insect cells or E. coli
The following applies: CDK19/CycC; read-out: CDK7 selectivity profile in CDKs family, IC50. How it is done:
as §1

T4 sequence (Q14004 whole entry): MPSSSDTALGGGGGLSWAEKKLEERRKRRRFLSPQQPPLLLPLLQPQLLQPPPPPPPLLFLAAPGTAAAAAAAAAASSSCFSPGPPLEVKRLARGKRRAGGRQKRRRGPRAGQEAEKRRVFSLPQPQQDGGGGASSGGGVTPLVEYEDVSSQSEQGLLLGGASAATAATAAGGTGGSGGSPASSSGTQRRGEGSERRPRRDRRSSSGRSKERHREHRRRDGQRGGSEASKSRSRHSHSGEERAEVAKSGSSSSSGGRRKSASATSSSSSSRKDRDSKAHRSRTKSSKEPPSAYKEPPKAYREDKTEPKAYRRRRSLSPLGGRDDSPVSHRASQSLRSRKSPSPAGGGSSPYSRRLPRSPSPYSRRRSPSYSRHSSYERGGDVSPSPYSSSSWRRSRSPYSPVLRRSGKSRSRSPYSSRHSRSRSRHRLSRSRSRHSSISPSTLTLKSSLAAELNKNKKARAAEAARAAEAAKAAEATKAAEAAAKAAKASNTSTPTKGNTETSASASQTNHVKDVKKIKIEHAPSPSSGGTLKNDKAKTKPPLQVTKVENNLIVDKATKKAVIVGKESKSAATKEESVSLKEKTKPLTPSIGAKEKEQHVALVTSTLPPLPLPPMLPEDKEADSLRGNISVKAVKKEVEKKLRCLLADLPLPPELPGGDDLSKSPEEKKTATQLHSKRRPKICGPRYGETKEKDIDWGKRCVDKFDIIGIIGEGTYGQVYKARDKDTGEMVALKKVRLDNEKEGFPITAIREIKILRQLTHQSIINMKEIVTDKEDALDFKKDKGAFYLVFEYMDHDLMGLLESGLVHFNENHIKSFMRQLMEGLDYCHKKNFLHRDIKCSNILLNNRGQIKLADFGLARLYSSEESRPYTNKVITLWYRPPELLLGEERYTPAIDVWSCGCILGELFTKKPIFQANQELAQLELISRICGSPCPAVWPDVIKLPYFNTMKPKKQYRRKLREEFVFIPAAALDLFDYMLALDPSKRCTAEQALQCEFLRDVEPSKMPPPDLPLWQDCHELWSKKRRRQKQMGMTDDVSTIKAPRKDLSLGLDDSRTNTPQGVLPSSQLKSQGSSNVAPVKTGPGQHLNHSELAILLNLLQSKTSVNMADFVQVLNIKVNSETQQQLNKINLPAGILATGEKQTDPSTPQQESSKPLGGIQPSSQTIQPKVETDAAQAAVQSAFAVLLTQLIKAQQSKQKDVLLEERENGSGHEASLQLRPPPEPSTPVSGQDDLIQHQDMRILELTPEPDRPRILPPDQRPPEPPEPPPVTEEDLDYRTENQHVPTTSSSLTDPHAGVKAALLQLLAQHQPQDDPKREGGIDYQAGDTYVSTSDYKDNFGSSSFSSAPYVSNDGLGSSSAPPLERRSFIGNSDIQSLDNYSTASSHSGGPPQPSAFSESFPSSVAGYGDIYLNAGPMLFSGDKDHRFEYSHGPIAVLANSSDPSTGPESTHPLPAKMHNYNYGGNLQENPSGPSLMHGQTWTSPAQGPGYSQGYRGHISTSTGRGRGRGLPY
T4 sequence (O75909 whole entry partner): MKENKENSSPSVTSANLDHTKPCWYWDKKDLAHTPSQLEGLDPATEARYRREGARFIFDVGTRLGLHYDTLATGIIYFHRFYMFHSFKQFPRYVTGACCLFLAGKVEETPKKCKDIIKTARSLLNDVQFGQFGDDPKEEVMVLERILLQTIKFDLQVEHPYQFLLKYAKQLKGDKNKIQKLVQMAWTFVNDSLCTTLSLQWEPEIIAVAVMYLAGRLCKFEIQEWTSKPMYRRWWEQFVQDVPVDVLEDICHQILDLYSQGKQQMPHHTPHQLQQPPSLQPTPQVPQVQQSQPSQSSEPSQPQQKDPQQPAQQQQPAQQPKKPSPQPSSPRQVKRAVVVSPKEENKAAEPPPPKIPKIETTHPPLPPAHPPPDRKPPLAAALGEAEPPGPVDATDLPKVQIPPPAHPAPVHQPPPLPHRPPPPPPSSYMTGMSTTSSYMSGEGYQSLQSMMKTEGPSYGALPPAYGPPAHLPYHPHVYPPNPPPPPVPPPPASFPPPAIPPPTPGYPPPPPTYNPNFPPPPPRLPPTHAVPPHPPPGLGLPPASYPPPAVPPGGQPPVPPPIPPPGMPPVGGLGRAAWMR
T1 sequence (P50613 whole entry): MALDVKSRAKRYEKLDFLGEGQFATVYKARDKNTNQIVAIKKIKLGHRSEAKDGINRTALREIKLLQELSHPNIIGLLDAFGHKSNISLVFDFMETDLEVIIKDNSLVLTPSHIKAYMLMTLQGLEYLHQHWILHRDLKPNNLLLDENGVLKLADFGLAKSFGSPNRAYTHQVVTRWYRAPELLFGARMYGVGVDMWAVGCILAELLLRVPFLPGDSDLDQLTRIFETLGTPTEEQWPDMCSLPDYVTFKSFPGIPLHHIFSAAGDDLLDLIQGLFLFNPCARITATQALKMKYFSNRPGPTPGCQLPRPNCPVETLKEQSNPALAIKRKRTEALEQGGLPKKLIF
T1 sequence (P51946 whole entry partner): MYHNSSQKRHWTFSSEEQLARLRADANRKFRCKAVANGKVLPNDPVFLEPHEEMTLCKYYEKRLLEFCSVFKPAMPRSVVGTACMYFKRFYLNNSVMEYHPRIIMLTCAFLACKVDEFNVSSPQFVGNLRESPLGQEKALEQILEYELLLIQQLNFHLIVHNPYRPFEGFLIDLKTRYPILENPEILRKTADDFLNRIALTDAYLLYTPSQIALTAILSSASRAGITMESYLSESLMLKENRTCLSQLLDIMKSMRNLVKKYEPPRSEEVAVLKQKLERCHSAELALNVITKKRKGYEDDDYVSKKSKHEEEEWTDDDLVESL
T1 sequence (P51948 whole entry partner): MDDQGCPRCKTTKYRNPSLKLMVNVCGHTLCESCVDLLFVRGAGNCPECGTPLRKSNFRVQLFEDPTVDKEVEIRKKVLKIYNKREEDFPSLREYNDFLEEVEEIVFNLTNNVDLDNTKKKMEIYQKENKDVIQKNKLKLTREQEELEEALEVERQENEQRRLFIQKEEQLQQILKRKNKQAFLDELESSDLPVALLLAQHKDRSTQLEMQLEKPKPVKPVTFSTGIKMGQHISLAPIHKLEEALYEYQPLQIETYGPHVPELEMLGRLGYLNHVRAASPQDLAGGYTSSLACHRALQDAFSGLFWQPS
T3 sequence (Q00537 whole entry): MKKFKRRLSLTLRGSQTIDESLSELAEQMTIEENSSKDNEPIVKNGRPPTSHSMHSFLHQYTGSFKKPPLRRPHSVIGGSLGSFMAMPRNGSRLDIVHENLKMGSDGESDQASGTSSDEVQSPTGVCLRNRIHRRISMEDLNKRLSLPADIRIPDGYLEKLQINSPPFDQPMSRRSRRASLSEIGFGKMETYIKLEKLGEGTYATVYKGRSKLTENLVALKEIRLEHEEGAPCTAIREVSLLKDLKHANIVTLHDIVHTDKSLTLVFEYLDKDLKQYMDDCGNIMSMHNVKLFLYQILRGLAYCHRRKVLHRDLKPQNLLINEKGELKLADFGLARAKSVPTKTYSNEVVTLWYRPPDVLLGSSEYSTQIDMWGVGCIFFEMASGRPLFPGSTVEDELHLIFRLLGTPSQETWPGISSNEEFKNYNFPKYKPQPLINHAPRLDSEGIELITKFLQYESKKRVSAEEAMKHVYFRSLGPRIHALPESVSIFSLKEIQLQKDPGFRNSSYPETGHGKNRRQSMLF
T3 sequence (Q15078 whole entry partner): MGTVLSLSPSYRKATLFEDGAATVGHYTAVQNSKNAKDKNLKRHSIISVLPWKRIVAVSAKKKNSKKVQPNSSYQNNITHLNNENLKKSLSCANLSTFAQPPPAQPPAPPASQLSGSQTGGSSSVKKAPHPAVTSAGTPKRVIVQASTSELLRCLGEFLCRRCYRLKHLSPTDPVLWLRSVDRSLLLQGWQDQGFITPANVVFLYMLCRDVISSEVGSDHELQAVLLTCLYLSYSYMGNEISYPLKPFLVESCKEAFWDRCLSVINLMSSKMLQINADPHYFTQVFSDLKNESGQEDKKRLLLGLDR
T6 sequence (Q9BWU1 whole entry): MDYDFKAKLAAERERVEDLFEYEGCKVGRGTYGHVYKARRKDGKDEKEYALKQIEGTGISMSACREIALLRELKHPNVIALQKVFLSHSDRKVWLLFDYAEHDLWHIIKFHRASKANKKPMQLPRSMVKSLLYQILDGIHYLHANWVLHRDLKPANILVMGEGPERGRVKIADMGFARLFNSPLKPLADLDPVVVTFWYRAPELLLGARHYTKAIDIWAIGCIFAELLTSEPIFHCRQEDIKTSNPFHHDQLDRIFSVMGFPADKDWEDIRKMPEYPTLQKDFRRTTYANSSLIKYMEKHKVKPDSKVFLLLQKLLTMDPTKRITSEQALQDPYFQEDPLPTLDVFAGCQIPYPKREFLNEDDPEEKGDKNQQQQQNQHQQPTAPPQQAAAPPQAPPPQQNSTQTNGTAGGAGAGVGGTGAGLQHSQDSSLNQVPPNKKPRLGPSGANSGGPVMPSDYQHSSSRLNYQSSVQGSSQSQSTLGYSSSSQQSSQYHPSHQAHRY
T6 sequence (P24863 whole entry partner): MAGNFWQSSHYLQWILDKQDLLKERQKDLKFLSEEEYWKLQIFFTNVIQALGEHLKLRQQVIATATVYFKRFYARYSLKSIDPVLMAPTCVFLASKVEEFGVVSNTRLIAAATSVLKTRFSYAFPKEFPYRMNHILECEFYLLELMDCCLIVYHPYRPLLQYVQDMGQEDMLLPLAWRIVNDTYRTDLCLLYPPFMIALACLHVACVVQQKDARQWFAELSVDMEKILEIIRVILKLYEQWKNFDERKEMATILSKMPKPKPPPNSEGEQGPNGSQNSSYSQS

For `CC(C)c1cnn2c(NCc3ccccc3-c3nccc4cc(NC(=O)/C=C/CN(C)C)ccc34)nc(N3CCC(N)CC3)nc12` [Compound 11], the IC50 (as a rule, the midpoint of a concentration-inhibition curve) in test [1] is 0.025 µM; in test [2] (CDK3/CycC), greater than 10 µM; in test [2] (CDK3/CycE1), greater than 10 µM; in test [3] it was greater than 10 µM; in test [4] it was greater than 10 µM; in test [5] (CDK20/CycH) it was greater than 10 µM. The IC50 in test [5] (CDK20/CycT1) and in test [6] was greater than 10 µM in each case.

For the origin of these results see US12606561B2, “Substituted pyrazolo[1,5-a][1,3,5]triazines as CDK inhibitors” (QURIENT CO., LTD., priority 2018, dated 2026).
